Results on eight compounds are retold here after ChEMBL document CHEMBL3769359, “Design of Selective PAK1 Inhibitor G-5555: Improving Properties by Employing an Unorthodox Low-pK a Polar Moiety” (ACS Med Chem Lett, 2015).

Data set [1] is described as follows: Hepatic clearance in human liver microsomes after 1 hr by LC-MS/MS analysis. In kind it is ADME. For orientation: Liver microsomes are a subcellular fraction often used to study metabolism.
Data set [2] can be described thus: Clearance in CD1 mouse blood at 2 mg/kg, iv after 8 hrs by LC/MS/MS. Type of data set: ADME, organism-based. The settings on record: whole blood.
Data set [3] can be described thus: Plasma clearance in cynomolgus monkey. Type of data set: ADME, organism-based, Macaca fascicularis.
Data set [4] in a line: Oral bioavailability in cynomolgus monkey. In kind it is ADME, organism-based, Macaca fascicularis. The settings on record: in vivo.
Data set [5] can be described thus: AUC (0 to 8 hrs) in CD1 mouse blood at 25 mg/kg, po after 8 hrs by LC/MS/MS. In kind it is ADME, organism-based. On the set-up: time < 8 hr, dose 25 mg/kg, route oral. The settings on record: whole blood.
Data set [6] in a line: Oral bioavailability in CD1 mouse blood at 25 mg/kg after 8 hrs by LC/MS/MS. In kind it is ADME, organism-based. To be noted: whole blood.
Data set [7] in a line: Half life in CD1 mouse blood at 2 mg/kg, iv after 8 hrs by LC/MS/MS. In kind it is ADME, organism-based. To be noted: whole blood.

In the case of `CNc1ncc2cc(-c3ccc(-c4cccc(C)n4)cc3Cl)c(=O)n(C[C@H]3OC[C@H](NC)CO3)c2n1`, the CLhep predicted in data set [1] is 13.8 mL/min/kg.

With `CNc1ncc2cc(-c3ccc(-c4cccc(C)n4)cc3Cl)c(=O)n(C[C@@H]3CCNCC3(F)F)c2n1`, in data set [1], the CLhep predicted was 17.8 mL/min/kg.

As to `CCNc1ncc2cc(-c3ccc(-c4cncc(C)n4)cc3Cl)c(=O)n(CC3CCNC(=O)C3)c2n1` (centres undefined), the CLhep predicted in data set [1] was 12.5 mL/min/kg.

Regarding `CCNc1ncc2cc(-c3ccc(-c4cncc(C)n4)cc3Cl)c(=O)n(C[C@H]3OC[C@H](N)CO3)c2n1`, in data set [1], the CLhep predicted is 9.6 mL/min/kg.

In the case of `CNc1ncc2cc(-c3ccc(-c4cccc(C)n4)cc3Cl)c(=O)n(CC3COC4(CNC4)OC3)c2n1`, the CLhep predicted in data set [1] was 11.6 mL/min/kg.

For `CNc1ncc2cc(-c3ccc(-c4cccc(C)n4)cc3Cl)c(=O)n(C[C@H]3OC[C@H](N)CO3)c2n1`, the CLhep predicted in data set [1] was 11.6 mL/min/kg. Moreover, the figures for the clearance in data set [2] and in data set [3] were 24.2 mL/min/kg and 3.4 mL/min/kg, respectively. In addition, the bioavailability in data set [4] turned out to be 72%; in data set [6], 80%. Moreover, the AUC(0-t) at 8 h in data set [5] is 30 µM·h. The compound also returned a half-life in data set [7] of 53 min.

As for `CCNc1ncc2cc(-c3ccc(-c4cncc(C)n4)cc3Cl)c(=O)n(CCCO)c2n1`, the CLhep predicted in data set [1] was 14.7 mL/min/kg.

With `CNc1ncc2cc(-c3ccc(-c4cncc(C)n4)cc3Cl)c(=O)n(C[C@H]3CNCCO3)c2n1`, the CLhep predicted in data set [1] was 10.7 mL/min/kg.

As usually defined, the clearance is the volume of plasma or blood freed of the substance per unit of time. For orientation: bioavailability means dose-corrected exposure relative to a reference, in per cent. The AUC(0-t) is exposure summed from dosing to a finite time, without extrapolation to infinity. The half-life is the time needed for the level to fall by half in the phase considered.
